Experimental data from PubChem BioAssay (NCI).
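These data come from cells grown in 96-well plates and exposed to compound for 48 hours at five concentrations. TGI marks complete inhibition of growth.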

What was measured:
Assay in all cases: growth of human tumour cells (NCI), 48 h
NCI-H226 lung = test system: NCI-H226 lung
SK-MEL-2 melanoma = test system: SK-MEL-2 melanoma
NCI-H522 lung = test system: NCI-H522 lung
OVCAR-5 ovarian = test system: OVCAR-5 ovarian
HS 578T breast = test system: HS 578T breast
SF-539 CNS = test system: SF-539 CNS
MDA-N = test system: MDA-N
IGROV1 ovarian = test system: IGROV1 ovarian
SK-MEL-28 melanoma = test system: SK-MEL-28 melanoma
TK-10 renal = test system: TK-10 renal
SK-MEL-5 melanoma = test system: SK-MEL-5 melanoma

Structure (SMILES)	TGI (NCI-H226 lung) [µM]	TGI (SK-MEL-2 melanoma) [µM]	TGI (NCI-H522 lung) [µM]	TGI (OVCAR-5 ovarian) [µM]	TGI (HS 578T breast) [µM]	TGI (SF-539 CNS) [µM]	TGI (MDA-N) [µM]	TGI (IGROV1 ovarian) [µM]	TGI (SK-MEL-28 melanoma) [µM]	TGI (TK-10 renal) [µM]	TGI (SK-MEL-5 melanoma) [µM]
CCOC(=O)c1cc(-c2ccc(OC)cc2)c([N+](=O)[O-])n1C	> 10	> 10	> 10	> 10	> 10	> 10	> 10	> 10			
NC(Cc1ccccc1)C(=O)NC(Cc1ccccc1)NC(=O)C(Cc1c[nH]c2ccccc12)C(=O)O (centres undefined)	> 100	> 100	> 100	> 100	> 100	> 100	> 100	> 100	> 100	> 100	> 100
CCOC(=O)CCC(NC(=O)C(N)Cc1ccc(N(CCCl)CCCl)cc1)C(=O)OCC (centres undefined)	20.7	6.05	0.853	7.19	4.93	3.38	4.98	3.93	2.18	4.41	2.93
CCCCCCc1cc2cc(-c3cn4ccsc4n3)c(=O)oc2cc1O	> 100	> 100	> 100	> 100	> 77	> 100	> 22.8	> 100	> 35.9	> 100	> 44.9
CCOC(=O)/C(C#N)=C/c1coc2cc(C)cc(C)c2c1=O	> 100		> 100	> 100	> 100	> 100	> 100	> 100	> 100	> 100	> 100
Cc1ccc(-[n+]2cc([O-])on2)cc1	> 100	> 100	> 100	> 100	> 100		> 100	> 100	> 100	> 100	> 100
CCOC(=O)C(=[N+]=[N-])C(=O)CN1C(=O)c2ccccc2C1=O		> 100	> 100	> 100	> 100	> 100	> 100	> 100	> 100	> 100	> 100
O=C1c2ccccc2-n2nnnc2C2CSCN12 (centres undefined)	> 100	> 100	> 100	> 100	> 100		> 100	> 100	> 100	> 100	> 100
CCOC(=O)c1cn2c(n1)sc1cc(F)ccc12	> 100	> 100	> 100	> 100	> 100	> 100	> 100	> 100	> 100	> 100	> 100
Cc1ccc(S(=O)(=O)N2CC2CCCCC=O)cc1 (centres undefined)	> 100	> 100	> 100	> 100	> 100		> 100	> 100	> 100	> 100	> 100
CC(N)/C(N)=N/O (centres undefined)	> 100	> 100	> 100	> 100	> 100	> 100	> 100	> 100	> 100	> 100	> 100
O=C(C(=O)n1ccc2ccccc21)n1ccc2ccccc21	> 100	> 100	> 100	> 100	> 100	> 100	> 100	53.1	> 100	> 100	> 100
Cc1cn(C2OC(CO[Si](C)(C)C(C)(C)C)C(N(C)O[Si](C)(C)C(C)(C)C)C2[Se]c2ccccc2)c(=O)[nH]c1=O (centres undefined)	21.7	34	11.6	11.7	7.58		> 100	28.2	22.2	27.1	53.7
COc1ccc(NC(=S)c2ccc(CN3CCCCC3)s2)cc1		36.9	32.5	34.1	43.8	> 100	36.7	49.2	33.8		28
CC(=O)CC1CCC(=O)/C=C/C(=O)OC(CC(C)=O)CCC(=O)/C=C/C(=O)O1 (centres undefined)	61.3	19.8	2.91	31.5	69.9	34.9	24	32.1	20.5	19	27.3
